Results as given in publication PMC6829050 (European journal of medicinal chemistry, 2019).

Tested on: ChTS over the hTS enzyme
Details: inhibition activity; cited from earlier work

| Compound | selectivity for the ChTS over the hTS enzyme |
| --- | --- |
| 2-amino-4-oxo-4,7-dihydro-pyrrolo[2,3-d]pyrimidin-methyl-phenyl-L-glutamic acid [Compound 1] | 6 fold |

Biological target: T1, ChTS (Cryptosporidium parvum, UniProt Q27552)
T1 sequence (Q27552 1-521): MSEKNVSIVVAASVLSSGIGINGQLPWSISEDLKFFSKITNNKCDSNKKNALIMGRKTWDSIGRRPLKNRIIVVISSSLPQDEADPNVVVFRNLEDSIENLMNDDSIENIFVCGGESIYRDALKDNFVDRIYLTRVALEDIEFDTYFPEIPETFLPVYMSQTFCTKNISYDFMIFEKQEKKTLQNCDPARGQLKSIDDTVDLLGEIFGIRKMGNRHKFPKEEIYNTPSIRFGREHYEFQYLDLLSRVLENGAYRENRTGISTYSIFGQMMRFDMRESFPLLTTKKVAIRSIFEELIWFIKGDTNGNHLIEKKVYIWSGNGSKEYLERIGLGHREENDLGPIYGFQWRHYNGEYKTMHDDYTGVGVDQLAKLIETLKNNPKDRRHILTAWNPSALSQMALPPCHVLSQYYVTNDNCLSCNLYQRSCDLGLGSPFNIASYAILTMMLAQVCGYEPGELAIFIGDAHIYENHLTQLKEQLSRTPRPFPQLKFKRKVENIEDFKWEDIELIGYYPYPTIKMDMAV
Format: biochemical
Details: ChTS IC50 compared to compound 2

| Compound | loss (decrease) of potency | increase (enhancement) in potency |
| --- | --- | --- |
| Nc1nc2[nH]cc(Cc3ccc(C(=O)Nc4cccc(C(=O)O)c4)cc3)c2c(=O)[nH]1 [Compound 3, 3-(4-((2-amino-4-oxo-4,7-dihydro-3H-pyrrolo[2,3-d]pyrimidin-5-yl)methyl)benzamido)benzoic acid] | ~ 5 fold | – |
| Nc1nc2[nH]cc(Cc3ccc(C(=O)Nc4ccc(C(=O)O)cc4)cc3)c2c(=O)[nH]1 [Compound 4, 4-(4-((2-amino-4-oxo-4,7-dihydro-3H-pyrrolo[2,3-d]pyrimidin-5-yl)methyl)benzamido)benzoic acid] | ~ 5 fold | – |
| Nc1nc2[nH]cc(Cc3ccc(C(=O)Nc4ccccc4CCC(=O)O)cc3)c2c(=O)[nH]1 [Compound 6, 3-(2-(4-((2-amino-4-oxo-4,7-dihydro-3H-pyrrolo[2,3-d]pyrimidin-5-yl)methyl)benzamido)phenyl) propanoic acid] | ~ 6 fold | – |
| CN(C(=O)c1ccc(Cc2c[nH]c3nc(N)[nH]c(=O)c23)cc1)c1ccccc1C(=O)O [Compound 9, 2-(4-((2-amino-4-oxo-4,7-dihydro-3H-pyrrolo[2,3-d]pyrimidin-5-yl)methyl)-N-methylbenzamido) benzoic acid] | ~ 11 fold | – |
| Nc1nc2[nH]cc(Cc3ccc(/C=C/c4ccccc4C(=O)O)cc3)c2c(=O)[nH]1 [Compound 10, (E)-2-(4-((2-amino-4-oxo-4,7-dihydro-3H-pyrrolo[2,3-d]pyrimidin-5-yl)methyl)styryl)benzoic acid] | greater than 5 fold | – |
| Nc1nc2[nH]cc(Cc3ccc(C(=O)NCc4ccccc4C(=O)O)cc3)c2c(=O)[nH]1 [Compound 11, 2-((4-((2-amino-4-oxo-4,7-dihydro-3H-pyrrolo[2,3-d]pyrimidin-5-yl)methyl)benzamido)methyl) benzoic acid] | 6 fold | – |
| Nc1nc2[nH]cc(Cc3ccc(C(=O)N4CCCCC4C(=O)O)cc3)c2c(=O)[nH]1 (stereo not shown) [Compound 12, 1-(4-((2-amino-4-oxo-4,7-dihydro-3H-pyrrolo[2,3-d]pyrimidin-5-yl)methyl)benzoyl) piperidine-2-carboxylic acid] | greater than 25 fold | – |
| Nc1nc2[nH]cc(Cc3ccc(C(=O)NC4CCCCC4C(=O)O)cc3)c2c(=O)[nH]1 (stereo not shown) [Compound 13, 2-(4-((2-amino-4-oxo-4,7-dihydro-3H-pyrrolo[2,3-d]pyrimidin-5-yl)methyl)benzamido)cyclohexan-1-carboxylic acid] | 3 fold | – |
| COc1ccc(C(=O)O)c(NC(=O)c2ccc(Cc3c[nH]c4nc(N)[nH]c(=O)c34)cc2)c1 [Compound 16, 2-(4-((2-amino-4-oxo-4,7-dihydro-3H-pyrrolo[2,3-d]pyrimidin-5-yl)methyl)benzamido)-4-methoxy benzoic acid] | ~ 2.5 fold | – |
| N#Cc1ccc(C(=O)O)c(NC(=O)c2ccc(Cc3c[nH]c4nc(N)[nH]c(=O)c34)cc2)c1 [Compound 17, 2-(4-((2-amino-4-oxo-4,7-dihydro-3H-pyrrolo[2,3-d]pyrimidin-5-yl)methyl)benzamido)-4-cyanobenzoic acid] | – | 2 fold |
| Nc1nc2[nH]cc(Cc3ccc(C(=O)Nc4cc(CO)ccc4C(=O)O)cc3)c2c(=O)[nH]1 [Compound 18, 2-(4-((2-amino-4-oxo-4,7-dihydro-3H-pyrrolo[2,3-d]pyrimidin-5-yl)methyl)benzamido)-4-(hydroxymethyl)benzoic acid] | ~ 9 fold | – |
| COCc1ccc(C(=O)O)c(NC(=O)c2ccc(Cc3c[nH]c4nc(N)[nH]c(=O)c34)cc2)c1 [Compound 19, 2-(4-((2-amino-4-oxo-4,7-dihydro-3H-pyrrolo[2,3-d]pyrimidin-5-yl)methyl)benzamido)-4-(methoxymethyl)benzoic acid] | ~ 3.5 fold | – |
| COCc1cccc(C(=O)O)c1NC(=O)c1ccc(Cc2c[nH]c3nc(N)[nH]c(=O)c23)cc1 [Compound 21, 2-(4-((2-amino-4-oxo-4,7-dihydro-3H-pyrrolo[2,3-d]pyrimidin-5-yl)methyl)benzamido)-3-(methoxymethyl)benzoic acid] | greater than 5 fold | – |
| COc1ccc(NC(=O)c2ccc(Cc3c[nH]c4nc(N)[nH]c(=O)c34)cc2)c(C(=O)O)c1 [Compound 22, 2-(4-((2-amino-4-oxo-4,7-dihydro-3H-pyrrolo[2,3-d]pyrimidin-5-yl)methyl)benzamido)-5-methoxybenzoic acid] | greater than 5 fold | – |
| COCCOc1cc(OC)cc(-c2ccc(Cc3c[nH]c4nc(N)[nH]c(=O)c34)cc2)c1 [Compound 26, 2-amino-5-((3’-methoxy-5’-(2-methoxyethoxy)-[1,1’-biphenyl]-4-yl)methyl)-3,7-dihydro-4H-pyrrolo [2,3-d]pyrimidin-4-one] | ~ 5 fold | – |
| COc1cc(C(=O)O)cc(-c2ccc(Cc3c[nH]c4nc(N)[nH]c(=O)c34)cc2)c1 [Compound 27, 4’-((2-amino-4-oxo-4,7-dihydro-3H-pyrrolo[2,3-d]pyrimidin-5-yl)methyl)-5-methoxy-[1,1’-biphenyl]-3-carboxylic acid] | greater than 25 fold | – |

Same assay, conditions: compared to compound 2

| Compound | change in ChTS potency (in words) |
| --- | --- |
| Nc1nc2[nH]cc(Cc3ccc(C(=O)Nc4ccccc4CC(=O)O)cc3)c2c(=O)[nH]1 [Compound 5, 2-(2-(4-((2-amino-4-oxo-4,7-dihydro-3H-pyrrolo[2,3-d]pyrimidin-5-yl)methyl)benzamido)phenyl) acetic acid] | small increase in potency |
| Nc1nc2[nH]cc(Cc3ccc(C(=O)Nc4cc(Cl)ccc4C(=O)O)cc3)c2c(=O)[nH]1 [Compound 14, 2-(4-((2-amino-4-oxo-4,7-dihydro-3H-pyrrolo[2,3-d]pyrimidin-5-yl)methyl)benzamido)-4-chloro benzoic acid] | small loss of potency |
